Assays:
Assay type in all cases: in vivo
[1] = tested on: PUCCINIA RECONDITA (WHEAT); experiment: Foliar fungal disease test on plants: Puccinia recondita on wheat; conditions: 100 ppm active ingredient spray and root drench approximately 40 ppm a.i./dry soil, one or two days before inoculation, assessed four to fourteen days after inoculation
Procedure: (§1) The compounds were tested against a variety of foliar fungal diseases of plants. The technique employed was as follows. The plants were grown in John Innes Potting Compost (No 1 or 2) in 4 cm diameter minipots. A layer of fine sand was placed at the bottom of the pots containing the dicotyledonous plants to facilitate uptake of test compound by the roots. The test compounds were formulated either by bead milling with aqueous Dispersol T or as a solution in acetone or acetone/ethanol which was diluted to the required concentration immediately before use. For the foliage diseases, suspensions (100 ppm active ingredient) were sprayed […]. Exceptions to this were the tests on Botrytis cinerea and Venturia inaequalis. The sprays were applied to maximum retention and the root drenches to a final concentration equivalent to approximately 40 ppm a.i./dry soil. Tween 20, to give a final concentration of 0.05%, was added when the sprays were applied to cereals. For most of the tests the compound was applied to the soil (roots) and to the foliage (by spraying) one or two days before the plant was inoculated with the diseases. An exception was the test on Erysiphe graminis in which the plants were inoculated 24 hours before treatment. After inoculation, the plants were put into an appropriate environment to allow infection to take place and then incubated until the disease was ready for assessment. The period between inoculation and assessment varied from four to fourteen days according to the disease and environment. The disease control was recorded by the following grading:- • 4 = no disease • 3 = trace - 5% of disease on untreated plants • 2 = 6-25% of disease on untreated plants • 1 = 26-59% of disease on untreated plants • 0 = 60-100% of disease on untreated plants

[2] = tested on: ERYSIPHE GRAMINIS (BARLEY); experiment: Foliar fungal disease test on plants: Erysiphe graminis on barley; conditions: 100 ppm active ingredient spray and root drench approximately 40 ppm a.i./dry soil, plants inoculated 24 hours before treatment
Procedure: as §1

BOTRYTIS CINEREA (GRAPE) = experiment: Foliar fungal disease test on plants: Botrytis cinerea on grape; conditions: 100 ppm active ingredient, named as an exception to the usual way of application, treatment one or two days before inoculation
Procedure: as §1, with “For most of the tests the compound was applied to the soil (roots) and to the foliage (by spraying) one or two days before the plant was inoculated with the diseases. An exception was the test on Erysiphe graminis in which the plants were inoculated 24 hours before treatment.” left out, “The period between inoculation and assessment varied from four to fourteen days according to the disease and environment.” left out

[3] = tested on: CERCOSPORA ARACHIDICOLA (PEANUT); experiment: Foliar fungal disease test on plants: Cercospora arachidicola on peanut; conditions: 100 ppm active ingredient spray and root drench approximately 40 ppm a.i./dry soil, one or two days before inoculation
Procedure: as §1

[4] = tested on: VENTURIA INEQUALIS (APPLE); experiment: Foliar fungal disease test on plants: Venturia inaequalis on apple; conditions: 100 ppm active ingredient, named as an exception to the usual way of application, treatment one or two days before inoculation
Procedure: as §1

SMILES: OC(Cn1cncn1)(c1ccccc1)c1cccs1 (centres unmarked) [Compound 1A, 1-(1,2,4-Triazol-1-yl)-2-phenyl-2-(2-thienyl)ethan-2-ol]
- disease control grading, PUCCINIA RECONDITA (WHEAT) [1]: 3 (3 = trace - 5% of disease on untreated plants)
- disease control grading, ERYSIPHE GRAMINIS (BARLEY) [2]: 4 (4 = no disease)
- disease control grading, BOTRYTIS CINEREA (GRAPE) (BOTRYTIS CINEREA (GRAPE)): 0 (0 = 60-100% of disease on untreated plants)
- disease control grading, CERCOSPORA ARACHIDICOLA (PEANUT) [3]: 0 (0 = 60-100% of disease on untreated plants)
- disease control grading, VENTURIA INEQUALIS (APPLE) [4]: 0 (0 = 60-100% of disease on untreated plants)

SMILES: OC(Cn1cncn1)(c1ccc(Cl)s1)c1ccc(Cl)cc1Cl (stereo not drawn) [Compound 11A, 1-(1,2,4-Triazol-l-yl)-2-(2,4-dichloroplienyl)-2-(5-chlorothien-2-yl) ethan-2-ol]
- disease control grading, PUCCINIA RECONDITA (WHEAT) [1]: 4 (4 = no disease)
- disease control grading, ERYSIPHE GRAMINIS (BARLEY) [2]: 4 (4 = no disease)
- disease control grading, CERCOSPORA ARACHIDICOLA (PEANUT) [3]: 3 (3 = trace - 5% of disease on untreated plants)
- disease control grading, VENTURIA INEQUALIS (APPLE) [4]: 4 (4 = no disease)

SMILES: OC(Cn1cnnc1)(c1ccc(Cl)s1)c1ccc(Cl)cc1Cl (centres unmarked) [Compound 11B, 1-(1,2,4-Triazol-4-yl)-2-(2,4-dichlorophenyl)-2-(5-chloro-thlen-2-yl) ethan-2-ol]
- disease control grading, PUCCINIA RECONDITA (WHEAT) [1]: 4 (4 = no disease)
- disease control grading, ERYSIPHE GRAMINIS (BARLEY) [2]: 4 (4 = no disease)
- disease control grading, BOTRYTIS CINEREA (GRAPE) (BOTRYTIS CINEREA (GRAPE)): 0 (0 = 60-100% of disease on untreated plants)
- disease control grading, CERCOSPORA ARACHIDICOLA (PEANUT) [3]: 1 (1 = 26-59% of disease on untreated plants)
- disease control grading, VENTURIA INEQUALIS (APPLE) [4]: 1 (1 = 26-59% of disease on untreated plants)

From patent EP0046337A2, “Triazole compounds, a process for preparing them, their use as plant and pharmaceutical fungicides and as plant growth regulators and compositions containing them” (IMPERIAL CHEMICAL INDUSTRIES PLC, priority 1980, dated 1982)
